Measurements: patent publication US20230302150A1, “ANTIBODY-TLR AGONIST CONJUGATES, METHODS AND USES THEREOF” (Ambrx, Inc., priority 2020, published 2023)

Biological target: T1, hTLR7 (Homo sapiens, UniProt Q9NYK1)
T1 construct: expressed in transfected cells; host or cells: HEK-Blue hTLR7 reporter cell line
T1 sequence (Q9NYK1 27-1049): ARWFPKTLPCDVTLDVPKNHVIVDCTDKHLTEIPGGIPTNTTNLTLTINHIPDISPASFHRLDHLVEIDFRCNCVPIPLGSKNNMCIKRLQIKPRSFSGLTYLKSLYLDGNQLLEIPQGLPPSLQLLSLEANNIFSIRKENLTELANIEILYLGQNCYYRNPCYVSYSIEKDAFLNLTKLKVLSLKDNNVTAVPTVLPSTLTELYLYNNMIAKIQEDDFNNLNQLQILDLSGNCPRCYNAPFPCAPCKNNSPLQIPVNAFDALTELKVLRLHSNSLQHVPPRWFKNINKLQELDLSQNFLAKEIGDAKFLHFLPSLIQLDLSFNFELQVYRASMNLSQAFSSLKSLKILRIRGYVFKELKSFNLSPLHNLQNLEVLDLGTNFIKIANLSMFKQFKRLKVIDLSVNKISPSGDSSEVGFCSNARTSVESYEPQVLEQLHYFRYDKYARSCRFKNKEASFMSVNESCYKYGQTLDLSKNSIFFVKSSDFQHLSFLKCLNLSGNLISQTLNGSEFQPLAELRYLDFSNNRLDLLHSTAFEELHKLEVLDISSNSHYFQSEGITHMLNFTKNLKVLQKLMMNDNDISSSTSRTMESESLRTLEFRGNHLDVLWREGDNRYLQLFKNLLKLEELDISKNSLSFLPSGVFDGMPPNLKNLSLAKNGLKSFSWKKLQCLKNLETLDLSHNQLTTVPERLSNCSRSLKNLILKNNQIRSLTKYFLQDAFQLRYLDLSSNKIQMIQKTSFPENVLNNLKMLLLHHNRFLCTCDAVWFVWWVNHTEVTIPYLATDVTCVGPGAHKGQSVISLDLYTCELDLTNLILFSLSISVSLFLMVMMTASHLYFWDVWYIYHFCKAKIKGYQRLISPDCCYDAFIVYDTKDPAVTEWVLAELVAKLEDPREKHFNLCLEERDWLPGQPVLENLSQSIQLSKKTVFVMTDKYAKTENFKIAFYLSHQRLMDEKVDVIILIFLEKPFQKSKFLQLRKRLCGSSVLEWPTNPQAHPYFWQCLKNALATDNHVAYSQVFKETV
Assay: HEK-Blue hTLR7 reporter assay (NF-kB-induced SEAP, Quanti-Blue)
Assay type: cell-based
Conditions: Table 19, TLR7, drug-linkers with PEG shielding; read-out: EC50
Experimental: HEK-Blue™ hTLR7 cells were incubated in HEK-Blue™ Detection medium and stimulated with increasing concentrations of TLR7 or TLR8 or TLR7/8 agonists. […] The EC50 was determined from dose-response curve using Prism Software.

Row | SMILES | EC50 [nM]
1 | CCCCOc1nc(N)c2[nH]c(=O)n(Cc3ccc(CN4CCC(CCNC(=O)[C@H](CCCCNC(=O)CON)NC(=O)CCOCCOCCOCCOCCOCCOCCOCCOCCOCCOCCOCCOCCOCCOCCOCCOCCOCCOCCOCCOCCOCCOCCOCCOCCOCCOCCOCCOCCOCCOCCOCCOCCOCCOCCOCCOCCOC)CC4)cc3)c2n1 [AXC-941, (S)—N-(2-(1-(4-((6-amino-2-butoxy-8-oxo-7,8-dihydro-9H-purin-9-yl)methyl)benzyl)piperidin-4-yl)ethyl)-6-(2-(aminooxy)acetamido)-2-PEG37-amidohexanamide] | 699
2 | CCCCOc1nc(N)c2[nH]c(=O)n(Cc3ccc(CN4CCC(CCNC(=O)[C@H](CCCCNC(=O)CON)NC(=O)CCCc5ccccc5)CC4)cc3)c2n1 [AXC-942, (S)—N-(2-(1-(4-((6-amino-2-butoxy-8-oxo-7,8-dihydro-9H-purin-9-yl)methyl)benzyl)piperidin-4-yl)ethyl)-6-(2-(aminooxy)acetamido)-2-(4-phenylbutanamido)hexanamide] | 387
3 | CCCCOc1nc(N)c2[nH]c(=O)n(Cc3ccc(CN4CCC(CCNC(=O)[C@H](CCCCNC(=O)CON)NC(=O)CCCC(=O)NCCOCCOCCOCCOCCC(=O)NC(COCCC(=O)NCCOCCOCCOCCOCCOCCOCCOCCOC)(COCCC(=O)NCCOCCOCCOCCOCCOCCOCCOCCOC)COCCC(=O)NCCOCCOCCOCCOCCOCCOCCOCCOC)CC4)cc3)c2n1 [AXC-945, (S)—N-(2-(1-(4-((6-amino-2-butoxy-8-oxo-7,8-dihydro-9H-purin-9-yl)methyl)benzyl)piperidin-4-yl)ethyl)-6-(2-(aminooxy)acetamido)-2-dPEG4-(m-dPEG8)3-amidohexanamide] | 232
4 | CCCCOc1nc(N)c2[nH]c(=O)n(Cc3ccc(CN4CCC(CCNC(=O)[C@H](CCCCNC(=O)CON)NC(=O)CCCC(=O)NCCOCCOCCOCCOCCC(=O)NC(COCCC(=O)NCCOCCOCCOCCOCCOCCOCCOCCOCCOCCOCCOCCOC)(COCCC(=O)NCCOCCOCCOCCOCCOCCOCCOCCOCCOCCOCCOCCOC)COCCC(=O)NCCOCCOCCOCCOCCOCCOCCOCCOCCOCCOCCOCCOC)CC4)cc3)c2n1 [AXC-946, (S)—N-(2-(1-(4-((6-amino-2-butoxy-8-oxo-7,8-dihydro-9H-purin-9-yl)methyl)benzyl)piperidin-4-yl)ethyl)-6-(2-(aminooxy)acetamido)-2-dPEG4-(m-dPEG12)3-amidohexanamide] | 1410
5 | CCCCOc1nc(N)c2[nH]c(=O)n(Cc3ccc(CN4CCC(CCNC(=O)[C@H](CCCCN)NC(=O)CON)CC4)cc3)c2n1 [AXC-947, (S)-6-amino-N-(2-(1-(4-((6-amino-2-butoxy-8-oxo-7,8-dihydro-9H-purin-9-yl)methyl)benzyl)piperidin-4-yl)ethyl)-2-(2-(aminooxy)acetamido)hexanamide] | 337
6 | CCCCOc1nc(N)c2[nH]c(=O)n(Cc3ccc(CN4CCC(CCNC(=O)[C@H](CCCCNC(=O)CCOCCOCCOCCOCCOCCOCCOCCOCCOCCOCCOCCOCCOCCOCCOCCOCCOCCOCCOCCOCCOCCOCCOCCOC)NC(=O)CON)CC4)cc3)c2n1 [AXC-949, (S)—N-(2-(1-(4-((6-amino-2-butoxy-8-oxo-7,8-dihydro-9H-purin-9-yl)methyl)benzyl)piperidin-4-yl)ethyl)-2-(2-(aminooxy)acetamido)-6-PEG24-amidohexanamide] | 760
7 | CCCCOc1nc(N)c2[nH]c(=O)n(Cc3ccc(CN4CCC(CCNC(=O)[C@H](CCCCNC(=O)CCOCCOCCOCCOCCOCCOCCOCCOC)NC(=O)CON)CC4)cc3)c2n1 [AXC-950, (S)—N-(2-(1-(4-((6-amino-2-butoxy-8-oxo-7,8-dihydro-9H-purin-9-yl)methyl)benzyl)piperidin-4-yl)ethyl)-2-(2-(aminooxy)acetamido)-6-PEG8-amidohexanamide] | 443
8 | CCCCOc1nc(N)c2[nH]c(=O)n(Cc3ccc(CN4CCC(CCNC(=O)[C@H](CCCCNC(=O)CCOCCOCCOCCOCCOCCOCCOCCOCCOCCOCCOCCOCCOCCOCCOCCOCCOCCOCCOCCOCCOCCOCCOCCOCCOCCOCCOCCOCCOCCOCCOCCOCCOCCOCCOCCOCCOC)NC(=O)CON)CC4)cc3)c2n1 [AXC-951, (S)—N-(2-(1-(4-((6-amino-2-butoxy-8-oxo-7,8-dihydro-9H-purin-9-yl)methyl)benzyl)piperidin-4-yl)ethyl)-2-(2-(aminooxy)acetamido)-6-(PEG37)hexanamide] | 842
9 | CCCCOc1nc(N)c2[nH]c(=O)n(Cc3ccc(CN4CCC(CCNC(=O)[C@H](CCCCNC(=O)CCCC(=O)NCCOCCOCCOCCOCCC(=O)NC(COCCC(=O)NCCOCCOCCOCCOCCOCCOCCOCCOC)(COCCC(=O)NCCOCCOCCOCCOCCOCCOCCOCCOC)COCCC(=O)NCCOCCOCCOCCOCCOCCOCCOCCOC)NC(=O)CON)CC4)cc3)c2n1 [AXC-952, (S)—N-(2-(1-(4-((6-amino-2-butoxy-8-oxo-7,8-dihydro-9H-purin-9-yl)methyl)benzyl)piperidin-4-yl)ethyl)-2-(2-(aminooxy)acetamido)-6-(dPEG4-(m-dPEG8)3)hexanamide] | 1020
10 | CCCCOc1nc(N)c2[nH]c(=O)n(Cc3ccc(CN4CCC(CCNC(=O)[C@H](Cc5ccc(O)cc5)NC(=O)CON)CC4)cc3)c2n1 [AXC-953, (S)—N-(2-(1-(4-((6-amino-2-butoxy-8-oxo-7,8-dihydro-9H-purin-9-yl)methyl)benzyl)piperidin-4-yl)ethyl)-2-(2-(aminooxy)acetamido)-3-(4-hydroxyphenyl)propanamide] | 201
11 | CCCCOC(=O)Nc1nc(OCCCC)nc2c1[nH]c(=O)n2Cc1ccc(CN2CCC(CCNC(=O)CON)CC2)cc1 [AXC-954, butyl (9-(4-((4-(2-(2-(aminooxy)acetamido)ethyl)piperidin-1-yl)methyl)benzyl)-2-butoxy-8-oxo-8,9-dihydro-7H-purin-6-yl)carbamate] | 111
12 | CCCCOc1nc(N)c2[nH]c(=O)n(Cc3ccc(CN4CCC(CCNC(=O)CCN5C(=O)C=CC5=O)CC4)cc3)c2n1 [AXC-955, N-(2-(1-(4-((6-amino-2-butoxy-8-oxo-7,8-dihydro-9H-purin-9-yl)methyl)benzyl)piperidin-4-yl)ethyl)-3-(2,5-dioxo-2,5-dihydro-1H-pyrrol-1-yl)propanamide] | 173
13 | CCCCOc1nc(N)c2[nH]c(=O)n(Cc3ccc(CN4CCC(CCNC(=O)[C@H](Cc5ccc(O[C@@H]6O[C@H](CO)[C@@H](O)[C@H](O)[C@H]6O)cc5)NC(=O)CON)CC4)cc3)c2n1 [AXC-956, (S)—N-(2-(1-(4-((6-amino-2-butoxy-8-oxo-7,8-dihydro-9H-purin-9-yl)methyl)benzyl)piperidin-4-yl)ethyl)-2-(2-(aminooxy)acetamido)-3-(4-(((2S,3R,4S,5S,6R)-3,4,5-trihydroxy-6-(hydroxymethyl)tetrahydro-2H-pyran-2-yl)oxy)phenyl)propanamide] | 158
14 | CCCCOc1nc(N)c2[nH]c(=O)n(Cc3ccc(CN4CCC(CCNC(=O)[C@@H](CCCCN)NC(=O)CON)CC4)cc3)c2n1 [AXC-958, (R)-6-amino-N-(2-(1-(4-((6-amino-2-butoxy-8-oxo-7,8-dihydro-9H-purin-9-yl)methyl)benzyl)piperidin-4-yl)ethyl)-2-(2-(aminooxy)acetamido)hexanamide] | 39.6
15 | CCCCOc1nc(N)c2[nH]c(=O)n(Cc3ccc(CN4CCC(CCNC(=O)[C@@H](CCCCNC(=O)CCOCCOCCOCCOCCOCCOCCOCCOCCOCCOCCOCCOCCOCCOCCOCCOCCOCCOCCOCCOCCOCCOCCOCCOC)NC(=O)CON)CC4)cc3)c2n1 [AXC-959, (R)—N-(2-(1-(4-((6-amino-2-butoxy-8-oxo-7,8-dihydro-9H-purin-9-yl)methyl)benzyl)piperidin-4-yl)ethyl)-2-(2-(aminooxy)acetamido)-6-PEG24-amidohexanamide] | 551
16 | CCCCOc1nc(N)c2[nH]c(=O)n(Cc3ccc(CN4CCC(CCNC(=O)[C@H](Cc5ccc(OP(=O)(O)O)cc5)NC(=O)CON)CC4)cc3)c2n1 [AXC-960, (S)-4-(3-((2-(1-(4-((6-amino-2-butoxy-8-oxo-7,8-dihydro-9H-purin-9-yl)methyl)benzyl)piperidin-4-yl)ethyl)amino)-2-(2-(aminooxy)acetamido)-3-oxopropyl)phenyl dihydrogen phosphate] | 267
